Here are results for 5 compounds from ChEMBL document CHEMBL5465560, “Selectivity Literature for EUbOPEN Chemogenomic Library” (2024).

The target in assay [1] is T1, Non-receptor tyrosine-protein kinase TNK1 (Homo sapiens) (UniProt Q13470).
T1 sequence (whole entry): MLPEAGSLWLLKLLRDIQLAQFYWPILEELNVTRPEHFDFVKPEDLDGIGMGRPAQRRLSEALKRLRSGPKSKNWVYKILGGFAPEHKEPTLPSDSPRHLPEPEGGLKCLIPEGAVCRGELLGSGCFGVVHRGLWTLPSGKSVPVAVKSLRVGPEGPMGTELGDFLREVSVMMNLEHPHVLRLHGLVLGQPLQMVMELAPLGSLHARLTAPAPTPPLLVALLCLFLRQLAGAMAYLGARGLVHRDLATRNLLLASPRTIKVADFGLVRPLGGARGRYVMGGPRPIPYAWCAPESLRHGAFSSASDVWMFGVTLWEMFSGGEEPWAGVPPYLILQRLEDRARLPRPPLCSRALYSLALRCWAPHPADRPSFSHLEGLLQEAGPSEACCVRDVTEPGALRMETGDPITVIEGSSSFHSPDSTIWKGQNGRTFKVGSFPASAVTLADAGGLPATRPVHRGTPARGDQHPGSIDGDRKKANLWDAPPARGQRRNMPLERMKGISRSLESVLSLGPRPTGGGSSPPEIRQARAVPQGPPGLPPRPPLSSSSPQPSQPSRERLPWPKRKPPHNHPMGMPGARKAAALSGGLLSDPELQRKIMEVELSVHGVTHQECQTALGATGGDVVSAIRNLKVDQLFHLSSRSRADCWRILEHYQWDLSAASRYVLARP
Put plainly: Selectivity interaction (KinomeScan (DiscoverX)) EUB0000695a TNK1. As to conditions: at 100 nM.

Assay [2] concerns the target T2, Megakaryocyte-associated tyrosine-protein kinase (Homo sapiens) (UniProt P42679).
T2 sequence (whole entry): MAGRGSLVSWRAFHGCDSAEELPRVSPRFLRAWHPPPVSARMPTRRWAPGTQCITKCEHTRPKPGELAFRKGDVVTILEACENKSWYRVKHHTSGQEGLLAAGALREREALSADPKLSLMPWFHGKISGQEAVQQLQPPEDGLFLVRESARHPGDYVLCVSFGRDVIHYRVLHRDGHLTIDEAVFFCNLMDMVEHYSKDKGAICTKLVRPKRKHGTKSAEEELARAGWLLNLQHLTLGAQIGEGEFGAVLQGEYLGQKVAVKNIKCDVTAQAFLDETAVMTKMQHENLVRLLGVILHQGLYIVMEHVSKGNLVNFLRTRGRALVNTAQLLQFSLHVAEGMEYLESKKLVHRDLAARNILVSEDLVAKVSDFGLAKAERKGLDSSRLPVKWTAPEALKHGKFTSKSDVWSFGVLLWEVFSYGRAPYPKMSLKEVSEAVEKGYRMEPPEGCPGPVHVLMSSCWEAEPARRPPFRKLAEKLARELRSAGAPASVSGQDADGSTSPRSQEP
Briefly: Selectivity interaction (KinomeScan (DiscoverX)) EUB0000607a MATK. The settings on record: at 10 µM.

The next assay concerns the target Aurora kinase B (Homo sapiens, UniProt Q96GD4). Briefly: Selectivity interaction (ActivX KiNativ screen (kinase selectivity in THP-1 cell lysates)) EUB0000639a AURKB. Format: subcellular. The settings on record: lysate.
The target in assay [3] is T3, Tyrosine-protein kinase Tec (Homo sapiens) (UniProt P42680).
T3 sequence (whole entry): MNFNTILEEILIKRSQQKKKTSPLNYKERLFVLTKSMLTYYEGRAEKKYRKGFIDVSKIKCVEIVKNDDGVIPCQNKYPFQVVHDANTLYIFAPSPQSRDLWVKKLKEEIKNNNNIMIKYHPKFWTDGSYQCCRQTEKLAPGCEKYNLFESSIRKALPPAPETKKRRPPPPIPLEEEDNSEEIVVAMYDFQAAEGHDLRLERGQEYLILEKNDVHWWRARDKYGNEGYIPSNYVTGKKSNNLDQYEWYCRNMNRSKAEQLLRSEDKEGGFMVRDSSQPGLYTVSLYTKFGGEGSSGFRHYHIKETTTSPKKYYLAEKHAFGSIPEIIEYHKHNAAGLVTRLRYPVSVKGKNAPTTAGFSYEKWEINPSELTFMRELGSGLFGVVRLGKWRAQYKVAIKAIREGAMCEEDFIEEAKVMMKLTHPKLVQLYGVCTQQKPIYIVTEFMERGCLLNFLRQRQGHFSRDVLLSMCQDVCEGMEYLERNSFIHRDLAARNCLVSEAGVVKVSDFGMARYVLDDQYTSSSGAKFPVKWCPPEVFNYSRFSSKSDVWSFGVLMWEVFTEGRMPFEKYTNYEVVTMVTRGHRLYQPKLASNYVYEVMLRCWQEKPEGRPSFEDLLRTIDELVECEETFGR
Briefly: Selectivity interaction (ActivX KiNativ screen (kinase selectivity in THP-1 cell lysates)) EUB0000639a TEC. It is filed as subcellular. The settings on record: lysate.

The target in assay [4] is T4, Serine/threonine-protein kinase Nek5 (Homo sapiens) (UniProt Q6P3R8).
T4 sequence (whole entry): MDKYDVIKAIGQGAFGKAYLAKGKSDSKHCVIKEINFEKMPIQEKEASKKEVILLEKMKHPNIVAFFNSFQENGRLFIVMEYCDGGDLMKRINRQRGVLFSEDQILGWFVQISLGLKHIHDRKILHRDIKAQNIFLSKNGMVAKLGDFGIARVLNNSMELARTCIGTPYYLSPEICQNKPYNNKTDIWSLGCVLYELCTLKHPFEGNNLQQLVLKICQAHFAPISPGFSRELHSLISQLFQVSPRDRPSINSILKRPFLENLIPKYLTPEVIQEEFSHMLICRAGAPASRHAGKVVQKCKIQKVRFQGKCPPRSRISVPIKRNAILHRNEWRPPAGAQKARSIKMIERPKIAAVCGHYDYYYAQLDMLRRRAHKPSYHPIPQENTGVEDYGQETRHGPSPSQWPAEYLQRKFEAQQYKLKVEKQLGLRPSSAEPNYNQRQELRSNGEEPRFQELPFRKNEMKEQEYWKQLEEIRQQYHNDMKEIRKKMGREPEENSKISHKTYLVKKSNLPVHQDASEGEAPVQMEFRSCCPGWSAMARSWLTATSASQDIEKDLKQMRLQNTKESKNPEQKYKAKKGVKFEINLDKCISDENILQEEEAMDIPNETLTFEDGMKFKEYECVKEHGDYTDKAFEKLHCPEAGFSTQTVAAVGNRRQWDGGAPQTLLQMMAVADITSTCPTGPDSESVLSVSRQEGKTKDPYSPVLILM
Put plainly: Selectivity interaction (KinomeScan (DiscoverX)) EUB0000045b NEK5.

The target of assay [5] is Receptor tyrosine-protein kinase erbB-2 (Homo sapiens, UniProt P04626). Briefly: Selectivity interaction (KinomeScan (DiscoverX)) EUB0000229b ERBB2. As to conditions: at 10 µM.

Each structure is given as a SMILES string.

Chain of Aurora kinase B (Q96GD4 whole entry): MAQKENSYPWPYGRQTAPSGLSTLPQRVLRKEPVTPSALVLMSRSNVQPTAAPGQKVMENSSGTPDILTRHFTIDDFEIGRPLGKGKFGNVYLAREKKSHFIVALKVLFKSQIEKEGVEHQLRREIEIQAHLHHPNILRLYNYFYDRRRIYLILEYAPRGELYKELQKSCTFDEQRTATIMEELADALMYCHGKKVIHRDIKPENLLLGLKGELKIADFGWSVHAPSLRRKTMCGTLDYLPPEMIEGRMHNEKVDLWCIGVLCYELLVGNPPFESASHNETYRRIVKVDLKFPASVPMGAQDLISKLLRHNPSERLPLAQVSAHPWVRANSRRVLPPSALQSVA
Chain of Receptor tyrosine-protein kinase erbB-2 (P04626 whole entry): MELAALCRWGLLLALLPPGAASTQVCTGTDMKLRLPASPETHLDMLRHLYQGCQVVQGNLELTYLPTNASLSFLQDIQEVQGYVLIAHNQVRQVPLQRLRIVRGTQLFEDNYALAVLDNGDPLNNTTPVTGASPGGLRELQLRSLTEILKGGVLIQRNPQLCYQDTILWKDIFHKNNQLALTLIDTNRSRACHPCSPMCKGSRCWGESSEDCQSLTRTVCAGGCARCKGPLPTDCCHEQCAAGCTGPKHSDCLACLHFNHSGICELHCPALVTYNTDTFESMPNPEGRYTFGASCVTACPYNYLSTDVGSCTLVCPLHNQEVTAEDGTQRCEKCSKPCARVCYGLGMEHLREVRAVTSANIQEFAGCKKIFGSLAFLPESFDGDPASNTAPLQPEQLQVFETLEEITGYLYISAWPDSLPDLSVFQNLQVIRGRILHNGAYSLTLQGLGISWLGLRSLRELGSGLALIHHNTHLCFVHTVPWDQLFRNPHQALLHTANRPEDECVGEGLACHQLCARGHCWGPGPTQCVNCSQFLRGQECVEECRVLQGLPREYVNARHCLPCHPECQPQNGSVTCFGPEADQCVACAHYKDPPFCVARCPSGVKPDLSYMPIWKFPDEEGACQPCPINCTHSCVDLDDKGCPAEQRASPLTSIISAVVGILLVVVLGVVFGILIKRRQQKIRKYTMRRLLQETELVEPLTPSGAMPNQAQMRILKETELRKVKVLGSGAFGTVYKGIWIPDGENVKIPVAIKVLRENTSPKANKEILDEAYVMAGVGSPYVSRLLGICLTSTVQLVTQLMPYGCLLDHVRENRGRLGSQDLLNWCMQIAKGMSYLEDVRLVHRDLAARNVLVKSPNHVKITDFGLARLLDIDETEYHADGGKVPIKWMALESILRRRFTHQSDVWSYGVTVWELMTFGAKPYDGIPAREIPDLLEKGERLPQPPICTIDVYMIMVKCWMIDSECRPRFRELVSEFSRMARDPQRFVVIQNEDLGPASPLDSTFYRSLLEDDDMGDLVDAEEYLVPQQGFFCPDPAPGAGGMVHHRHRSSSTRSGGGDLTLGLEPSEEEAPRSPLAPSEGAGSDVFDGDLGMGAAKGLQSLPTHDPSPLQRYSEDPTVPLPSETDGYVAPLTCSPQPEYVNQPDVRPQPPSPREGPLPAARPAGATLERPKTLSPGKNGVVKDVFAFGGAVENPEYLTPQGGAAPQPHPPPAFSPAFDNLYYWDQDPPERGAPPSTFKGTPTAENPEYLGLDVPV

In assay [1], `Cc1cc(F)c(C(=O)Nc2cccc(-c3nncn3C(C)C)n2)cc1-n1cnc(C2CC2)c1` gave a % of control of 100%.
Regarding `CNC(=O)Nc1ccc(-c2nc(N3CC4CCC(C3)O4)c3cnn(C4CCC5(CC4)OCCO5)c3n2)cc1`, in assay [2], the % of control stood at 100%.
`CC[C@@H]1[C@H](F)C(=O)N[C@@H]1COc1nccc2cc(C(N)=O)c(OC)cc12` [ZIMLOVISERTIB]: the % of inhibition was found to be 9.7% at Aurora kinase B (at 0.01 µM); 3.4% at Aurora kinase B (at 0.04 µM); 11.1% on Aurora kinase B (at 0.2 µM); 32.2% on Aurora kinase B (at 1 µM); 63.1% on Aurora kinase B (at 5 µM); 6% in assay [3] (at 0.01 µM). In addition, the % of inhibition is 0% in assay [3] (at 0.04 µM), -2.1% in assay [3] (at 0.2 µM), -3.6% in assay [3] (at 1 µM) and -0.9% in assay [3] (at 5 µM).
`C=CC(=O)Nc1cc(-n2c(=O)ccc3cnc4ccc(-c5ccc(NS(C)(=O)=O)cc5)cc4c32)ccc1C`: the % of control was 100% in assay [4] (at 1 µM) and 84% in assay [4] (at 10 µM).
Consider `COc1cc(N(C)c2ccnc3ccc(C(F)(F)F)cc23)cc(OC)c1OC`, for which the % binding in assay [5] is 62%.
